Assay results from patent US20210114973A1, “PHARMACEUTICAL FORMULATIONS” (First Wave Bio, Inc., priority 2019, published 2021).

Tests used:
[1] = cited from earlier work
[2] = Effect of particle size on colonic exposure levels: single rectal dose of niclosamide suspension, blood and rectal mucosa samples; conditions: rabbit; for plasma concentration of niclosamide (maximum measured): rectal administration, 1 hour (time point of maximum plasma concentration)
Procedure: These preparations of niclosamide were formulated into a suspension. Rabbits were treated with a single dose of these niclosamide suspensions at the dose levels specified. Following dosing, blood samples and rectal mucosa samples were obtained at indicated time points.

concentration at 1 hour ([2]; colon tissue, other: rectal, 22.5 mg) | plasma concentration of niclosamide (maximum measured) ([2]; 7.5 mg single dose) | plasma concentration of niclosamide (maximum measured) ([2]; 22.5 mg single dose) | SMILES | solubility in acetone ([1]; acetone) | solubility in ether, ethanol and chloroform ([1]; ether, ethanol and chloroform) | water solubility ([1]; water, 20° C.)
 |  |  | O=C(Nc1ccc([N+](=O)[O-])cc1Cl)c1cc(Cl)ccc1O [Niclosamide, 5-chloro-N-(2-chloro-4-nitrophenyl)-2-hydroxybenzamide] | soluble | sparingly soluble | 5 to 8 µg/mL
6090 ng/mL | 6.576 | 20.24 | O=C(Nc1ccc([N+](=O)[O-])cc1Cl)c1cc(Cl)ccc1O [milled niclosamide, 5-chloro-N-(2-chloro-4-nitrophenyl)-2-hydroxybenzamide] |  |  | 
